Consider nine compounds from US20120172384A1, “HETEROCYCLYLAMINOPYRIMIDINES AS KINASE INHIBITORS” (priority 2009, published 2012).

One may read the IC50 as the concentration that gives 50% inhibition. High values mean lower potency, low ones higher potency.

The test system of one experiment is organ transplantation. As to conditions: Changelian et al., 2003; cited from earlier work.
The test system of experiment [1] is rheumatoid arthritis. As to conditions: rheumatoid arthritis (Weinblatt et al., 2008); cited from earlier work.
Experiment [2] concerns rheumatoid arthritis. As to conditions: animal model of rheumatoid arthritis (Pine et al., 2007); cited from earlier work.
Another experiment deals with T1, JAK3 (Homo sapiens, UniProt P52333).
T1 construct: endogenous in cells
T1 sequence (P52333 1-1124): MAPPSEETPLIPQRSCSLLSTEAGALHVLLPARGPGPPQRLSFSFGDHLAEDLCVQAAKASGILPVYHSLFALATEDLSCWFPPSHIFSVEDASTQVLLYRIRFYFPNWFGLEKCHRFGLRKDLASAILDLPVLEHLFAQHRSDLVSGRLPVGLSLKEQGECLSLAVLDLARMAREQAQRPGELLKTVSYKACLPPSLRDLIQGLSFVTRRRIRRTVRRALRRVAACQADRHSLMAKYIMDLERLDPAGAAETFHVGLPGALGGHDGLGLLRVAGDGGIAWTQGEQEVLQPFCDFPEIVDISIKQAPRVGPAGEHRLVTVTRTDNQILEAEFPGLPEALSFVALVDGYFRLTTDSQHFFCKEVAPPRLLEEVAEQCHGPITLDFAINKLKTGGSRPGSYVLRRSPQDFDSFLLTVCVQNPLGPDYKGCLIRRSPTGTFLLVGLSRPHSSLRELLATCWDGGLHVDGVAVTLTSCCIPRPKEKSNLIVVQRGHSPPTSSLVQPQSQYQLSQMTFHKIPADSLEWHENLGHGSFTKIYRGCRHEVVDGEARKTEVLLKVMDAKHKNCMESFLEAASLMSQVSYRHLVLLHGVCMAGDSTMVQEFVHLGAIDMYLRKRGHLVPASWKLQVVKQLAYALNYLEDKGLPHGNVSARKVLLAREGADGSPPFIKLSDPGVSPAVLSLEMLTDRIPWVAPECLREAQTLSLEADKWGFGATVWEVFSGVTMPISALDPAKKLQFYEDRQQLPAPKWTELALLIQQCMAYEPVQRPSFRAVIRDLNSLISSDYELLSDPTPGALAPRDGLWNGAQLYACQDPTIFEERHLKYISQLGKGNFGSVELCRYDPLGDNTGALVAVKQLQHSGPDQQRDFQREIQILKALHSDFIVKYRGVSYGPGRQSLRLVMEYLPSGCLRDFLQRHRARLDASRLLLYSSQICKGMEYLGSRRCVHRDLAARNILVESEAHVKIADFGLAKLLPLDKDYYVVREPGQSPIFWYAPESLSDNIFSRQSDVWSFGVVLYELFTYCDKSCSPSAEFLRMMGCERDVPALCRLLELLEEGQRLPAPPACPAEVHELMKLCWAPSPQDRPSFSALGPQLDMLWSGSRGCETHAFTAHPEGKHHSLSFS
The experiment in a line: JAK3 kinobeads assay. As to conditions: cell lysate, dot blot with JAK3 specific antibody. The class given is binding. An outline of the steps: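 In this competition pulldown, test compounds at various concentrations were incubated in cell lysate together with beads carrying an immobilized aminopyrido-pyrimidine ligand. Bead-bound proteins were eluted, and JAK3 was quantified by dot blot with a JAK3-specific antibody and infrared detection.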

For the next experiment, the target named is T2, ZAP-70 (Homo sapiens, UniProt P43403).
T2 construct: endogenous in cells
T2 sequence (P43403 1-619): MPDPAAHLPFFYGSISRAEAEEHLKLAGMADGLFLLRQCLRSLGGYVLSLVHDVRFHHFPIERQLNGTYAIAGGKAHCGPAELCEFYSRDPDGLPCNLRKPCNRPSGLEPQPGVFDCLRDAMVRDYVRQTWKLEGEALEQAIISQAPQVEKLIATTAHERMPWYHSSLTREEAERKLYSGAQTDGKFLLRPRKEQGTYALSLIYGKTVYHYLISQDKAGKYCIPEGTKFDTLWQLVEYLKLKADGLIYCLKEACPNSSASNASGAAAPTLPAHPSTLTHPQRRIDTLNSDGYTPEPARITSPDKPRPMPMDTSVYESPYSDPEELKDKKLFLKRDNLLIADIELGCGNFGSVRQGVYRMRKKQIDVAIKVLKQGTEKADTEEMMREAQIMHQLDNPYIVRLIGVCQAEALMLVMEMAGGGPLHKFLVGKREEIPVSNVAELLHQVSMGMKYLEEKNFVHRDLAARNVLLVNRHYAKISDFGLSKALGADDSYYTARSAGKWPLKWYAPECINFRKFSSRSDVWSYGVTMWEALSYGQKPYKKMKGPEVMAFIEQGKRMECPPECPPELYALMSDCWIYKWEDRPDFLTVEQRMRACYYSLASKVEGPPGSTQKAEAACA
The experiment in a line: ZAP-70 kinobeads assay. The class given is binding. As to conditions: cell lysate, dot blot with ZAP-70 antibody.

For `C[C@@H]1CCN(C(=O)CC#N)C[C@@H]1N(C)c1ncnc2[nH]ccc12` [CP-690,550], the “efficacy in animal model of organ transplantation” value in the experiment with organ transplantation was “show efficacy”. With `COc1cc(Nc2ncc(F)c(Nc3ccc4c(n3)N(COP(=O)(O)O)C(=O)C(C)(C)O4)n2)cc(OC)c1OC` [Example R788], the “efficacy in clinical study” value in the experiment with rheumatoid arthritis [1] is reported as “demonstrated efficacy”. Regarding `COc1cc(Nc2ncc(F)c(Nc3ccc4c(n3)NC(=O)C(C)(C)O4)n2)cc(OC)c1OC` [Example R406], the “inflammation and bone erosion” value with rheumatoid arthritis [2] is “suppresses inflammation and bone erosion”. With `COc1ccc(Nc2nc(Nc3cc(C)nn3CCO)ncc2Cl)c(NS(C)(=O)=O)c1` [Example 94, N-(2-((5-chloro-2-((1-(2-hydroxyethyl)-3-methyl-1H-pyrazol-5-yl)amino)pyrimidin-4-yl)amino)-5-methoxyphenyl)methanesulfonamide], the IC50 against JAK3 fell in the range of 1000 to 10000 nM; against ZAP-70, 100 to 1000 nM.

For `Cc1cc(Nc2ncc(Cl)c(Nc3ccccc3NS(C)(=O)=O)n2)nn1C` [Example 39, N-(2-(5-chloro-2-(1,5-dimethyl-1H-pyrazol-3-ylamino)pyrimidin-4-ylamino)phenyl)methanesulfonamide], the half-maximal inhibitory concentration (IC50) was at most 100 nM against JAK3 and 100 to 1000 nM against ZAP-70. With `Cn1ccc(Nc2ncc(Cl)c(Nc3ccccc3NS(C)(=O)=O)n2)n1` [Example 16, N-(2-(5-chloro-2-(1-methyl-1H-pyrazol-3-ylamino)pyrimidin-4-ylamino)phenyl)methanesulfonamide], the IC50 was at most 100 nM on JAK3 and 100 to 1000 nM at ZAP-70. In the case of `CCn1ccc(Nc2ncc(Cl)c(Nc3ccccc3NS(C)(=O)=O)n2)n1` [Example 42, N-(2-(5-chloro-2-(1-ethyl-1H-pyrazol-3-ylamino)pyrimidin-4-ylamino)phenyl)methanesulfonamide], the figures for the IC50 against JAK3 and at ZAP-70 were at most 100 nM and 100 to 1000 nM, respectively.

On to `Cn1cc(Nc2ncc(Cl)c(Nc3ccccc3NS(C)(=O)=O)n2)cn1` [Example 20, N-(2-(5-chloro-2-(1-methyl-1H-pyrazol-4-ylamino)pyrimidin-4-ylamino)phenyl)methanesulfonamide], for which the IC50 is at most 100 nM at JAK3 and 100 to 1000 nM against ZAP-70. Take `CS(=O)(=O)Nc1ccccc1Nc1nc(Nc2cn[nH]c2)ncc1F` [Example 23, N-(2-(2-(1H-pyrazol-4-ylamino)-5-fluoropyrimidin-4-ylamino)phenyl)methanesulfonamide]: the IC50 was at most 100 nM on JAK3 and 100 to 1000 nM against ZAP-70.
